# Target: T1, sOGT (Homo sapiens, UniProt O15294)
# T1 construct: ncOGT and sOGT are identical to known splice variants; His8 (C); made in house; host or cells: E. coli BL21(DE3)
# T1 sequence (O15294 1-665 isoform O15294-4): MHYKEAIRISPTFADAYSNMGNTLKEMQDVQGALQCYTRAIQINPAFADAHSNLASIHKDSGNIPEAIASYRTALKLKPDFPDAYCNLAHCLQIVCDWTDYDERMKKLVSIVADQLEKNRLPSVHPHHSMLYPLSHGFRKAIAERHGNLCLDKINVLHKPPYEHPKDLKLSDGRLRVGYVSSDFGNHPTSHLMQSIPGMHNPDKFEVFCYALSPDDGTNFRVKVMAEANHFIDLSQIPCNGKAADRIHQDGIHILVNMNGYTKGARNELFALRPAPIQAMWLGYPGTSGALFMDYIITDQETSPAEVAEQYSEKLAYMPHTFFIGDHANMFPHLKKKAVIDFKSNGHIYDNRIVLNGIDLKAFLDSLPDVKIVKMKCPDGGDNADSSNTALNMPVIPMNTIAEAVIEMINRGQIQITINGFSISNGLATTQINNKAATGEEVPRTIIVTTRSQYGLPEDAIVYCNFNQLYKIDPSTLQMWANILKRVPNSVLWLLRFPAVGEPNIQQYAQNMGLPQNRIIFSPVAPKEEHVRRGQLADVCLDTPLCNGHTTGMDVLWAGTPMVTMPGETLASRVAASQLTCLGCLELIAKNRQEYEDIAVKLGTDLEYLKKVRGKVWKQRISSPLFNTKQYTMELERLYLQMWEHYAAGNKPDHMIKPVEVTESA
# Assay: Fluorescence polarization displacement of probe 3 from sOGT (validation with UDP and UDP-GlcNAc)
# Format: binding
# Protocol: 20 μL of this solution is transferred to wells of a 384-well microplate. […] Fluorescence polarization was measured using a Perkin Elmer Envision® microplate reader. Bach series was performed in triplicate and the average of each data point was converted from mP to anisotropy then fitted to the following equation:
# [L]0=(KD(Amax−A)/Kd(A−Amin)+1)([E]0−Kd(A−Amin)/(Amax−A)−[t]0(A−Amin)/(Amax−Amin)) eq 3
# where A=measured anisotropy at a particular total concentration of ligand (L), sOGT (E) and probe 3 (t), Amin=minimum polarization (i.e., anisotropy of free probe), Amax=final anisotropy (i.e., anisotropy of probe 3 bound entirely to sOGT), KD=dissociation constant of the ligand, Kd=dissociation constant of the probe 3.
structure (smiles),measurement,setting,value
O=c1ccn([C@@H]2O[C@H](COP(=O)(O)OP(=O)(O)O)[C@@H](O)[C@H]2O)c(=O)[nH]1 [UDP],Kd,"50 nM probe 3, […] sOGT, ligand 50 μM to 98 nM, read-out: KD (dissociation constant) from displacement of probe 3 from sOGT",0.8 ± 0.3 µM
same,extent of displacement of probe 3 from sOGT,at high concentrations of ligand,completely displaced probe 3 from sOGT
